Assay results as given in ChEMBL document CHEMBL3751820, “Synthesis and evaluation of bis-thiazole derivatives as new anticancer agents” (Eur J Med Chem, 2016).
In brackets after ≈: the same amount, converted by molar mass. Activity calls are given as the source filed them. The rule behind the calls is not given here.

What was measured:
[1] = Cytotoxicity against rat 5RP7 cells after 24 hrs by MTT assay; assay type: functional, cell-based; conditions: 5RP7, 24 h
C6 [2] = assay: Antiproliferative activity against rat C6 cells assessed as inhibition of DNA synthesis after 24 hrs by BrdU incorporation based ELISA; assay type: functional, cell-based
[3] = Cytotoxicity against mouse NIH/3T3 cells after 24 hrs by MTT assay; assay type: cell-based; conditions: NIH3T3, 24 h
Acetylcholinesterase = Acetylcholinesterase (Electrophorus electricus, UniProt O42275); assay: Inhibition of electric eel AChE using acetylthiocholine iodide as substrate at by Ellman spectrophotometric method
A549 [4] = assay: Antiproliferative activity against human A549 cells assessed as inhibition of DNA synthesis after 24 hrs by BrdU incorporation based ELISA; assay type: functional, cell-based
Cholinesterase [5] = biological target: T1, Cholinesterase (Homo sapiens, UniProt P06276); assay: Inhibition of BuChE (unknown origin) using butyrylthiocholine iodide as substrate at 80 ug/ml by Ellman spectrophotometric method
C6 [6] = assay: Cytotoxicity against rat C6 cells after 24 hrs by MTT assay; assay type: functional, cell-based; conditions: C6, 24 h
Cholinesterase [7] = biological target: T1, Cholinesterase; assay: Inhibition of BuChE (unknown origin) using butyrylthiocholine iodide as substrate by Ellman spectrophotometric method
A549 [8] = assay: Cytotoxicity against human A549 cells after 24 hrs by MTT assay; assay type: functional, cell-based; conditions: A549, 24 h
A549 [9] = assay: Selectivity index, ratio of IC50 for mouse NIH/3T3 cells to IC50 for human A549 cells; assay type: functional
C6 [10] = assay: Selectivity index, ratio of IC50 for mouse NIH/3T3 cells to IC50 for rat C6 cells; assay type: functional

Chain of Acetylcholinesterase (O42275 whole entry): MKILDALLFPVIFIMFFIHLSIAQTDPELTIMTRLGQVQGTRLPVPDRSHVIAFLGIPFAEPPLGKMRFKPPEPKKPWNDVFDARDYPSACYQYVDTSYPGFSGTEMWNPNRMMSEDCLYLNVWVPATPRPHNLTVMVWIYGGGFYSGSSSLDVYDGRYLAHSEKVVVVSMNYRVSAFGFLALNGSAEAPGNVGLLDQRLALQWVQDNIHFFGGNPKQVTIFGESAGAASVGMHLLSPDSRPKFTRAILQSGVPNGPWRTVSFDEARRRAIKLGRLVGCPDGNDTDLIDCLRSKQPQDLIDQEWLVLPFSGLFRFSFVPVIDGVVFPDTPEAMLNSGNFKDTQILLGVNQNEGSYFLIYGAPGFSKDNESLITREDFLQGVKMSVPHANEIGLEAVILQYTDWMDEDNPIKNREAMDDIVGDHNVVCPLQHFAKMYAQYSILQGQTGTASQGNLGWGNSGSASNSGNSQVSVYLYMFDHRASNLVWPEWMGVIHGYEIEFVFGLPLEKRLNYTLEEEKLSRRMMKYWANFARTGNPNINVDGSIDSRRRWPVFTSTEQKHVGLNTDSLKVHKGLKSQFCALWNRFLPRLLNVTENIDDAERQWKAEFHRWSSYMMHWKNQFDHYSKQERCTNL
T1 sequence (P06276 whole entry): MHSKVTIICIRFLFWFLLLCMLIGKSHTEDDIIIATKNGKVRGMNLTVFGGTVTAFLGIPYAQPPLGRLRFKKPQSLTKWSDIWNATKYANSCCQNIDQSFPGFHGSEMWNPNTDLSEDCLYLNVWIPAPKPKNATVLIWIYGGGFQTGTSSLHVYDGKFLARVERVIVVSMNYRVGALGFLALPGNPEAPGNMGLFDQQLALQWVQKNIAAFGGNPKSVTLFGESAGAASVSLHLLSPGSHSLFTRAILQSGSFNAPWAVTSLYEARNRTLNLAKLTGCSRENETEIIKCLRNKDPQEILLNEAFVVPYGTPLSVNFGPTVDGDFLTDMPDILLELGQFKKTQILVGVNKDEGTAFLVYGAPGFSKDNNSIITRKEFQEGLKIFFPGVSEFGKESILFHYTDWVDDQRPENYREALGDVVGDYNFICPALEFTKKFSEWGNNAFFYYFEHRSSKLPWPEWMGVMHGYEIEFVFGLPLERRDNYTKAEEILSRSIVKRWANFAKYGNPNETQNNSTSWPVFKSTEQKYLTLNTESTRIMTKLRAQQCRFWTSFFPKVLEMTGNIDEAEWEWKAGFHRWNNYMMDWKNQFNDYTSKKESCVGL

## COc1ccc(-c2csc(Nc3ccc(-c4ccc(Nc5nc(-c6ccc(OC)cc6)cs5)c(OC)c4)cc3OC)n2)cc1
[1]
  IC50: 13.3 µg/mL (≈ 21.4 µM)
C6 [2]
  Activity: inactive
[3]
  IC50: 98.3 µg/mL (≈ 158 µM)
Acetylcholinesterase
  IC50: 12.4 µM
A549 [4]
  Activity: Active
Cholinesterase [5]
  inhibition: 74.5%
C6 [6]
  IC50: 28.7 µg/mL (≈ 46.1 µM)
Cholinesterase [7]
  IC50: 107 µM
A549 [8]
  IC50: 58.3 µg/mL (≈ 93.6 µM)

## COc1cc(-c2ccc(Nc3nc(-c4ccc(C)cc4)cs3)c(OC)c2)ccc1Nc1nc(-c2ccc(C)cc2)cs1
[1]
  IC50: > 500 µg/mL
C6 [2]
  Activity: inactive
[3]
  IC50: 153 µg/mL (≈ 260 µM)
Acetylcholinesterase
  IC50: 45.8 µM
A549 [4]
  Activity: Active
Cholinesterase [5]
  inhibition: 40.9%
C6 [6]
  IC50: 21 µg/mL (≈ 35.5 µM)
Cholinesterase [7]
  IC50: > 135 µM
A549 [8]
  IC50: 98.3 µg/mL (≈ 166 µM)

## COc1cc(-c2ccc(Nc3nc(-c4ccccc4)cs3)c(OC)c2)ccc1Nc1nc(-c2ccccc2)cs1
[1]
  IC50: 28 µg/mL (≈ 49.8 µM)
[3]
  IC50: 112 µg/mL (≈ 198 µM)
Acetylcholinesterase
  IC50: 16.6 µM
Cholinesterase [5]
  inhibition: inactive
C6 [6]
  IC50: 49.3 µg/mL (≈ 87.6 µM)
A549 [8]
  IC50: 103 µg/mL (≈ 184 µM)

## COc1cc(-c2ccc(Nc3nc(-c4ccc(Cl)cc4)cs3)c(OC)c2)ccc1Nc1nc(-c2ccc(Cl)cc2)cs1
[1]
  IC50: 207 µg/mL (≈ 327 µM)
[3]
  IC50: 112 µg/mL (≈ 177 µM)
Acetylcholinesterase
  IC50: 42.7 µM
Cholinesterase [5]
  inhibition: 39.1%
C6 [6]
  IC50: 147 µg/mL (≈ 232 µM)
Cholinesterase [7]
  IC50: > 127 µM
A549 [8]
  IC50: 105 µg/mL (≈ 166 µM)

## COc1cc(-c2ccc(Nc3nc(-c4ccc(Br)cc4)cs3)c(OC)c2)ccc1Nc1nc(-c2ccc(Br)cc2)cs1
[1]
  IC50: 68.3 µg/mL (≈ 94.8 µM)
A549 [9]
  Ratio IC50: 3.53
C6 [2]
  Activity: inactive
[3]
  IC50: 132 µg/mL (≈ 183 µM)
C6 [10]
  Ratio IC50: 11.65
Acetylcholinesterase
  IC50: 15.9 µM
A549 [4]
  Activity: Active
Cholinesterase [5]
  inhibition: inactive
C6 [6]
  IC50: 11.3 µg/mL (≈ 15.7 µM)
A549 [8]
  IC50: 37.3 µg/mL (≈ 51.8 µM)

## COc1cc(-c2ccc(Nc3nc(-c4cc(Cl)ccc4Cl)cs3)c(OC)c2)ccc1Nc1nc(-c2cc(Cl)ccc2Cl)cs1
[1]
  IC50: 54.3 µg/mL (≈ 77.6 µM)
[3]
  IC50: 162 µg/mL (≈ 231 µM)
Acetylcholinesterase
  IC50: 97.1 µM
Cholinesterase [5]
  inhibition: 36.2%
C6 [6]
  IC50: 38.3 µg/mL (≈ 54.7 µM)
Cholinesterase [7]
  IC50: > 114 µM
A549 [8]
  IC50: 102 µg/mL (≈ 145 µM)

## COc1ccc(OC)c(-c2csc(Nc3ccc(-c4ccc(Nc5nc(-c6cc(OC)ccc6OC)cs5)c(OC)c4)cc3OC)n2)c1
[1]
  IC50: 12.3 µg/mL (≈ 18.1 µM)
[3]
  IC50: 170 µg/mL (≈ 249 µM)
Acetylcholinesterase
  IC50: 55.7 µM
Cholinesterase [5]
  inhibition: 56.9%
C6 [6]
  IC50: 103 µg/mL (≈ 151 µM)
Cholinesterase [7]
  IC50: 58 µM
A549 [8]
  IC50: 125 µg/mL (≈ 183 µM)

## COc1cc(-c2ccc(Nc3nc(-c4ccc(Cl)cc4Cl)cs3)c(OC)c2)ccc1Nc1nc(-c2ccc(Cl)cc2Cl)cs1
[1]
  IC50: > 500 µg/mL
[3]
  IC50: > 200 µg/mL
Acetylcholinesterase
  IC50: 8.37 µM
Cholinesterase [5]
  inhibition: 84.4%
C6 [6]
  IC50: 80 µg/mL (≈ 114 µM)
Cholinesterase [7]
  IC50: 47.6 µM
A549 [8]
  IC50: 133 µg/mL (≈ 190 µM)

## COc1cc(-c2ccc(Nc3nc(-c4ccc([N+](=O)[O-])cc4)cs3)c(OC)c2)ccc1Nc1nc(-c2ccc([N+](=O)[O-])cc2)cs1
[1]
  IC50: 5.83 µg/mL (≈ 8.93 µM)
C6 [2]
  Activity: inactive
[3]
  IC50: 147 µg/mL (≈ 225 µM)
Acetylcholinesterase
  IC50: 15.9 µM
A549 [4]
  Activity: Active
Cholinesterase [5]
  inhibition: 27.9%
C6 [6]
  IC50: 33.3 µg/mL (≈ 51 µM)
Cholinesterase [7]
  IC50: > 123 µM
A549 [8]
  IC50: 82.3 µg/mL (≈ 126 µM)

## COc1cc(-c2ccc(NC(N)=S)c(OC)c2)ccc1NC(N)=S
[1]
  IC50: 25.3 µg/mL (≈ 69.9 µM)
[3]
  IC50: 195 µg/mL (≈ 538 µM)
Acetylcholinesterase
  IC50: 57.7 µM
Cholinesterase [5]
  inhibition: 26.7%
C6 [6]
  IC50: 165 µg/mL (≈ 455 µM)
Cholinesterase [7]
  IC50: > 221 µM
A549 [8]
  IC50: 178 µg/mL (≈ 492 µM)

## COc1cc(-c2ccc(Nc3nc(-c4ccc(Cl)c(Cl)c4)cs3)c(OC)c2)ccc1Nc1nc(-c2ccc(Cl)c(Cl)c2)cs1
[1]
  IC50: 207 µg/mL (≈ 295 µM)
[3]
  IC50: > 200 µg/mL
Acetylcholinesterase
  IC50: 16.3 µM
Cholinesterase [5]
  inhibition: 53.5%
C6 [6]
  IC50: 90 µg/mL (≈ 128 µM)
Cholinesterase [7]
  IC50: 110 µM
A549 [8]
  IC50: 147 µg/mL (≈ 209 µM)

## O=C1c2c(O)ccc(O)c2C(=O)c2c(NCCNCCO)ccc(NCCNCCO)c21 [MITOXANTRONE]
[1]
  IC50: 0.73 µg/mL (≈ 1.64 µM)
A549 [8]
  IC50: 15.7 µg/mL (≈ 35.3 µM)
